{"source": "patent US20250235437A1", "about": "“PROTEOLYSIS TARGETING CHIMERA (PROTAC) MOLECULE FOR DEGRADATION OF ENL AND CANCER THERAPY” (Baylor College of Medicine, priority 2022, published 2025)", "key": {"ENL [1]": {"target": "T1, ENL (Homo sapiens, UniProt Q03111)", "T1 construct": "tested whether the compounds degrade ENL and AF9 in MV4;11 leukemia cells; endogenous in cells; host or cells: MV4;11; Molm-13", "T1 sequence (Q03111 1-559)": "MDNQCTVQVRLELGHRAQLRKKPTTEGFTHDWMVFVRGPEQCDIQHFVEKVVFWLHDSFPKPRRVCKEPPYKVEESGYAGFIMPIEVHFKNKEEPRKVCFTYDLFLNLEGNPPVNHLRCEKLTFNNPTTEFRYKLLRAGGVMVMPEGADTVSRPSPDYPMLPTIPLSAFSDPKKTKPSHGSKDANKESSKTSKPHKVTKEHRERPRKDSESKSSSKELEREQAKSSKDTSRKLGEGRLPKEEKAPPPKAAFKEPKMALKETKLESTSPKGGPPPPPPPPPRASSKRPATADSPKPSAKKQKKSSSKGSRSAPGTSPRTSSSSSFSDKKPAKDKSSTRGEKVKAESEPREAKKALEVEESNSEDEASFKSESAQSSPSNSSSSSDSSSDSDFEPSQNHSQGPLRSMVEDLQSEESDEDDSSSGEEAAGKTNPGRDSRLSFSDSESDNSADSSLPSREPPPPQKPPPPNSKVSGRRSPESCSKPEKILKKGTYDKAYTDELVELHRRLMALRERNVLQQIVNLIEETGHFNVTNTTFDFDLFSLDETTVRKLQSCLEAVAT", "experiment": "ENL degradation in MV4;11 cells (Western blot)", "assay_type": "cell-based", "experimental": "Next, Applicant tested whether the compounds degrade ENL and AF9 in MV4;11 leukemia cells with the .MLL1-AF4 oncogene. Upon compound treatment for 24 h, the cells were washed, lysed, and the lysates subjected to SDS-PAGE (sodium dodecyl sulphate-polyacrylamide gel electrophoresis) followed by detection with Western blot."}, "ENL [2]": {"target": "T1, ENL", "experiment": "Nuclear and cytoplasmic ENL levels in MV4;11 cells, 4 days (Western blot)", "assay_type": "cell-based", "from_the_text": "Upon treatment of MV4;11 cells with these compounds for 4 days, cytoplasmic and nuclear proteins were separated and subjected to SDS-PAGE/Western blot."}, "[3]": {"tested_on": "AF9, AFF4, cyclin-T1, DOT1L", "experiment": "Levels of other SEC-related proteins in MV4;11 cells, 4 days (Western blot)", "assay_type": "cell-based", "conditions": "nucleus", "from_the_text": "Applicant further investigated how compound 1 affects ENL, AF9 and other proteins of SEC in the cytoplasmic and nuclear compartments, the latter of which are more relevant to the functions of these transcription cofactors. […] Upon treatment of MV4;11 cells with these compounds for 4 days, cytoplasmic and nuclear proteins were separated and subjected to SDS-PAGE/Western blot."}, "ENL [4]": {"target": "T1, ENL", "experiment": "ChIP-qPCR, ENL at Myc and HoxA9 gene promoters", "assay_type": "cell-based", "conditions": "500 nM", "from_the_text": "Chromatin immunoprecipitation (ChIP) followed by qPCR was used to further probe the activity of compound 1 in the gene promoters of Myc and HoxA9, two characteristic MLL1 target genes."}, "HoxA9, Meis1 and Myc": {"tested_on": "HoxA9, Meis1 and Myc", "experiment": "Expression of HoxA9, Meis1 and Myc in Molm-13 cells", "assay_type": "cell-based", "conditions": "4 days", "experimental": "Previous studies show ENL is required for expression of MLL1-target genes in MLL1-r leukemia. How compound 1-mediated ENL degradation changes expression of HoxA9, Meis1 and Myc, three characteristic genes in MLL1-r leukemia, was examined. Molm-13 cells were treated with compound 1 for 4 days, after which the RNAs were extracted and analyzed."}, "Hela cell [5]": {"tested_on": "Hela cell", "experiment": "Anti-proliferative activity, Hela cells", "assay_type": "cell-based", "conditions": "Hela (cervical) cells; read-out: EC50, proliferation"}, "Molm-13 cells [6]": {"tested_on": "Molm-13 cells", "experiment": "Apoptosis of Molm-13 cells", "assay_type": "cell-based", "experimental": "Treatment of Molm-13 cells with compound 1 for 7 days at 1 and 3 μM caused significant apoptosis of 22.7% and 67.6%, respectively (FIG. 6C)."}, "Molm-13 cells [7]": {"tested_on": "Molm-13 cells", "experiment": "Differentiation of Molm-13 cells (CD14, CD11b)", "assay_type": "cell-based", "conditions": "3 μM for 5 days"}, "Molm-13 leukemia": {"tested_on": "Molm-13 leukemia", "experiment": "Subcutaneous Molm-13 leukemia xenograft in NOD-SCID mice", "assay_type": "in vivo", "experimental": "In vivo antitumor activity of compound 1 was evaluated in a commonly used mouse model of Molm-13 leukemia. First, in vivo toxicity was assessed in C57BL/6 mice. […] Next, 10^6 Molm-13 cells were injected subcutaneously into NOD-SCID mice, which developed palpable tumors in ˜1 week and grew rapidly."}, "mutant ENL (mENL)": {"target": "T2, mutant ENL (mENL) (Homo sapiens, UniProt Q03111, INS117NHL)", "T2 construct": "expressed in transfected cells; host or cells: HEK293T", "T2 sequence (Q03111 with tags, fused parts or gaps INS117NHL)": "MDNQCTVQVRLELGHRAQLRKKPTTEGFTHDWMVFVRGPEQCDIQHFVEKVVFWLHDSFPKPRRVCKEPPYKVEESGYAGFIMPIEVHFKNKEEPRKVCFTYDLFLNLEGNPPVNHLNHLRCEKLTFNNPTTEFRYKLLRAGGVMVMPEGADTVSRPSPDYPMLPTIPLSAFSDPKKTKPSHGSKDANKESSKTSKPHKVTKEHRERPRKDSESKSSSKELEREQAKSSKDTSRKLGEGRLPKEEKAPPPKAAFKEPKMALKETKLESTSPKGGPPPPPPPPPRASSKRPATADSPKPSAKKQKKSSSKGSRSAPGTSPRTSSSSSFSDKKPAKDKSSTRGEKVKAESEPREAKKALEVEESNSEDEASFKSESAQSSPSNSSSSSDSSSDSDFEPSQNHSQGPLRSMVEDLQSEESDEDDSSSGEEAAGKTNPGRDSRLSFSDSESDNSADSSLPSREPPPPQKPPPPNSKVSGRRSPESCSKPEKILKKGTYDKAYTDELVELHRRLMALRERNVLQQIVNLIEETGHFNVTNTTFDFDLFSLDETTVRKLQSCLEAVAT", "T2 sequence (Q96SW2 whole entry partner)": "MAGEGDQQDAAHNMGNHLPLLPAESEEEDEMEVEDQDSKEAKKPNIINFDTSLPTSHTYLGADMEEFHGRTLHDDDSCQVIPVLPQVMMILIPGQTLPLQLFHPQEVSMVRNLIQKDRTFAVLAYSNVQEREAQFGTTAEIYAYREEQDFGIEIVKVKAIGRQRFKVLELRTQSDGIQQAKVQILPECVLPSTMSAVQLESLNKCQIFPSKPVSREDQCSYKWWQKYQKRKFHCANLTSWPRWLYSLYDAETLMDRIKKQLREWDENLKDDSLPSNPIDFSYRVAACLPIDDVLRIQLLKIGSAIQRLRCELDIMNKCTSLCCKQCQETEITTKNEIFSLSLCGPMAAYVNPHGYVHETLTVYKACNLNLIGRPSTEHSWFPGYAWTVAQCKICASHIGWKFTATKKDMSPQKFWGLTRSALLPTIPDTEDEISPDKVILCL", "experiment": "Degradation of mutant and WT ENL in transfected HEK293T cells", "assay_type": "cell-based", "experimental": "Ability of compound 1 to degrade mutant ENL, which has been implicated to cause Wilms tumor, was evaluated. […] A pcDNA3.1(+)-N-DYK plasmid containing a mutant ENL (mENL) with a short insertion of -NHL- between L117 and R118 was transfected into 5×10^5 HEK293T cells. Upon incubation for 24 h, expression of the FLAG-tagged mENL can be dose-dependently detected with as low as […] of the plasmid (FIG. 7A). Using a FLAG antibody appeared to be less quantitative because of a higher background staining for the control samples (FIGS. 7A-7C, left panels).\nWith 0.1 μg of the plasmid, compound 1 can efficiently degrade both WT and mutant ENL proteins with Dmax of ˜95% at ˜500 nM upon 24 h incubation (FIG. 7B). […] It was ineffective with […] of the plasmid (not shown), presumably because the rate of mENL synthesis in cells was higher than that of 1-mediated degradation."}, "ENL [8]": {"target": "T1, ENL", "experiment": "ENL degradation in MV4;11 cells (Western blot)", "assay_type": "cell-based", "conditions": "500 nM"}, "Molm-13 cells [9]": {"tested_on": "Molm-13 cells", "conditions": "Molm13 cells, footnote b: reported in Li, et al. J Hematol Oncol, 2022; read-out: Anti-proliferative activity EC50, Molm13; cited from earlier work"}, "MV4;11 cells": {"tested_on": "MV4;11 cells", "conditions": "footnote b: reported in Li, et al. J Hematol Oncol, 2022, read-out: Anti-proliferative activity EC50, MV4; cited from earlier work"}, "Hela cell [10]": {"tested_on": "Hela cell", "conditions": "Hela cells, footnote b: reported in Li, et al. J Hematol Oncol, 2022; read-out: Anti-proliferative activity EC50, Hela; cited from earlier work"}}, "note": "pEC50: −log10 of the molar value. Where two headings read alike, the source gives them in different places."}
{"smiles": "C[C@H]1CCCN1Cc1nc2cc(NC(=O)c3ccc4c(cnn4CCCCCCCCNc4cccc5c4C(=O)N(C4CCC(=O)NC4=O)C5=O)c3)ccc2[nH]1", "note": "(some centres unmarked) [Compound 1]", "values": [{"measurement": "Dmax (maximal degradation), ENL", "setting": "ENL [1]; 24 h treatment", "value": "~95", "unit": "%"}, {"measurement": "concentration at which ENL is almost depleted", "setting": "ENL [1]; 24 h treatment", "value": "~500", "unit": "nM"}, {"measurement": "DC50", "setting": "ENL [1]; 24 h treatment, read-out: DC50 (concentration at which a protein is reduced by 50%), ENL", "value": 37, "unit": "nM"}, {"measurement": "concentration of maximal ENL-degrading activity", "setting": "ENL [1]; FIG. 3D", "value": "~500", "unit": "nM"}, {"measurement": "concentrations at which ENL level started to recover (hook effect)", "setting": "ENL [1]; FIG. 3D", "value": "1 to 10", "unit": "µM"}, {"measurement": "ENL level in the cytoplasmic extract", "setting": "ENL [2]", "value": "significantly reduced"}, {"measurement": "ENL level in the nucleus", "setting": "ENL [2]", "value": "significantly reduced dose-dependently and almost depleted with 500 nM"}, {"measurement": "levels of AF9, AFF4, cyclin-T1 and DOT1L", "setting": "[3]", "value": "not significantly decreased"}, {"measurement": "ENL levels at Myc and HoxA9 gene promoters", "setting": "ENL [4]", "value": "significantly reduced"}, {"measurement": "expression of HoxA9, Meis1 and Myc", "setting": "HoxA9, Meis1 and Myc", "value": "significantly inhibit expression of these three genes in a generally dose-dependent manner"}, {"measurement": "pEC50", "setting": "Hela cell [5]", "value": "< 4.30"}, {"measurement": "apoptosis", "setting": "Molm-13 cells [6]; 0.5 μM or shorter incubation (e.g. 4 days)", "value": "< 5", "unit": "%"}, {"measurement": "apoptosis", "setting": "Molm-13 cells [6]; 7 days, 1 μM", "value": 22.7, "unit": "%"}, {"measurement": "apoptosis", "setting": "Molm-13 cells [6]; 7 days, 3 μM", "value": 67.6, "unit": "%"}, {"measurement": "cell differentiation (CD14, CD11b)", "setting": "Molm-13 cells [7]", "value": "induced cell differentiation"}, {"measurement": "body weight", "setting": "Molm-13 leukemia; 30 mg/kg/day for Day 3-15", "value": "did not cause significant weight losses"}, {"measurement": "tumor growth", "setting": "Molm-13 leukemia; 30 mg/kg/day for Day 3-15", "value": "significantly inhibited tumor growth"}, {"measurement": "animal survival", "setting": "Molm-13 leukemia; 30 mg/kg/day for Day 3-15, p<0.01", "value": "prolonged animal survivals"}, {"measurement": "Dmax, WT and mutant ENL", "setting": "mutant ENL (mENL); 0.1 μg plasmid, ~500 nM, 24 h incubation", "value": "~95", "unit": "%"}, {"measurement": "degradation of WT and mutant ENLs", "setting": "mutant ENL (mENL); 0.2 μg plasmid, 500 nM", "value": "reduced efficiency"}, {"measurement": "degradation of WT and mutant ENLs", "setting": "mutant ENL (mENL); 1 g of the plasmid", "value": "ineffective"}, {"measurement": "time at which significant ENL degradation can be detected", "setting": "ENL [8]", "value": 2, "unit": "h"}, {"measurement": "time to ENL depletion", "setting": "ENL [8]", "value": "≤ 24", "unit": "h"}, {"measurement": "pEC50", "setting": "Molm-13 cells [9]", "value": 6.49}, {"measurement": "pEC50", "setting": "MV4;11 cells", "value": 6.24}, {"measurement": "pEC50", "setting": "Hela cell [10]", "value": "< 4.30"}]}
